# Data from patent US12595253B2, “Benzamides of pyrazolylamino-pyrimidinyl derivatives, and compositions and methods thereof” (LYNK PHARMACEUTICALS CO. LTD., priority 2019, dated 2026).
# Columns and labels:
# Type in all cases: biochemical
# [1] = target: T1, JAK1 (Homo sapiens, UniProt P23458); assay: JAK1 microfluidic kinase assay (Caliper EZ Reader II, FAM labeled peptide substrate)
# T1 construct: purchased Carna Biosciences
# Procedure, shortened: (§1)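 Activity measured in 50 mM HEPES, 0.01% Brij35, 10 mM MgCl2, 2 mM DTT by microfluidic separation of phosphorylated FAM peptide. Enzyme conditions set for 10% substrate conversion.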
# [2] = target: T2, TYK2 (Homo sapiens, UniProt P29597); assay: TYK2 microfluidic kinase assay (Caliper EZ Reader II, FAM labeled peptide substrate)
# T2 construct: purchased Carna Biosciences
# Procedure: Compounds were tested against JAK1, JAK2, JAK2V617F and TYK2. Assay Formats: JAK activity was determined in the reaction buffer 50 mM HEPES, 0.01% Brij35, 10 mM MgCl2, 2 mM DTT by a microfluidic assay. The phosphorylation of a FAM labeled peptide substrate was monitored in the Caliper EZ Reader II (Perkin Elmer). The assay condition for each batch of enzyme (Carna Biosciences) was optimized to obtain 10% conversion rate of peptide substrate. The test compounds were dissolved in DMSO to a stock concentration of 10 mM. 3-fold serially diluted compounds with top concentration of 5 μM were pre-incubated with JAK1, JAK2, JAK2V617F or TYK2 at indicated concentrations for 10 min at ambient temperature. The final DMSO concentration of assay mixture was 1%. […] The reaction was stopped by adding 50 mM EDTA. The reaction time for JAK1, JAK2, JAK2V617F and TYK2 was 120 min, 20 min, 30 min and 10 min, respectively. […] And the well without compound but with equivalent DMSO was defined as no inhibition. The percent inhibition was calculated by the following formula. % Inhibition=(Conversionmax−Conversionsample)/(Conversionmax−Conversionmin)*100 • Conversionmax means the conversion rate in the positive well without addition of compound • Conversionmin means the conversion rate in the well without addition of enzyme • Conversionsample means the conversion rate of test compounds The dose-response (percent inhibition) curve was plotted and IC50 values were determined by GraphPad software.
# [3] = target: T3, JAK2 (Homo sapiens, UniProt O60674); assay: JAK2 microfluidic kinase assay (Caliper EZ Reader II, FAM labeled peptide substrate)
# T3 construct: purchased Carna Biosciences
# Procedure, shortened: as §1
# [4] = target: T4, JAK2V617F (Homo sapiens, UniProt O60674, V617F); assay: JAK2V617F microfluidic kinase assay (Caliper EZ Reader II, FAM labeled peptide substrate); conditions: JAK2V617F 2.5 nM, 1 mM ATP
# T4 construct: purchased Carna Biosciences
# Procedure: Compounds were tested against JAK1, JAK2, JAK2V617F and TYK2. Assay Formats: JAK activity was determined in the reaction buffer 50 mM HEPES, 0.01% Brij35, 10 mM MgCl2, 2 mM DTT by a microfluidic assay. The phosphorylation of a FAM labeled peptide substrate was monitored in the Caliper EZ Reader II (Perkin Elmer). The assay condition for each batch of enzyme (Carna Biosciences) was optimized to obtain 10% conversion rate of peptide substrate. The test compounds were dissolved in DMSO to a stock concentration of 10 mM. 3-fold serially diluted compounds with top concentration of 5 μM were pre-incubated with JAK1, JAK2, JAK2V617F or TYK2 at indicated concentrations for 10 min at ambient temperature. The final DMSO concentration of assay mixture was 1%. […] The reaction was stopped by adding 50 mM EDTA. […] The percent inhibition was calculated by the following formula. % Inhibition=(Conversionmax−Conversionsample)/(Conversionmax−Conversionmin)*100 • Conversionmax means the conversion rate in the positive well without addition of compound • Conversionmin means the conversion rate in the well without addition of enzyme • Conversionsample means the conversion rate of test compounds The dose-response (percent inhibition) curve was plotted and IC50 values were determined by GraphPad software.
# [5] = IC50 JAK1 (5 nM) (1 m MATP), JAK1 5 nM, 1 mM ATP
# [6] = IC50 TYK2 ([…]) (1 mM ATP), TYK2 […], 1 mM ATP
# [7] = IC50 JAK2 ([…]) (1 mM ATP), 1 mM ATP
# [8] = IC50 JAK2 ([…]) (Km ATP), Km ATP
# T3 sequence (O60674 whole entry): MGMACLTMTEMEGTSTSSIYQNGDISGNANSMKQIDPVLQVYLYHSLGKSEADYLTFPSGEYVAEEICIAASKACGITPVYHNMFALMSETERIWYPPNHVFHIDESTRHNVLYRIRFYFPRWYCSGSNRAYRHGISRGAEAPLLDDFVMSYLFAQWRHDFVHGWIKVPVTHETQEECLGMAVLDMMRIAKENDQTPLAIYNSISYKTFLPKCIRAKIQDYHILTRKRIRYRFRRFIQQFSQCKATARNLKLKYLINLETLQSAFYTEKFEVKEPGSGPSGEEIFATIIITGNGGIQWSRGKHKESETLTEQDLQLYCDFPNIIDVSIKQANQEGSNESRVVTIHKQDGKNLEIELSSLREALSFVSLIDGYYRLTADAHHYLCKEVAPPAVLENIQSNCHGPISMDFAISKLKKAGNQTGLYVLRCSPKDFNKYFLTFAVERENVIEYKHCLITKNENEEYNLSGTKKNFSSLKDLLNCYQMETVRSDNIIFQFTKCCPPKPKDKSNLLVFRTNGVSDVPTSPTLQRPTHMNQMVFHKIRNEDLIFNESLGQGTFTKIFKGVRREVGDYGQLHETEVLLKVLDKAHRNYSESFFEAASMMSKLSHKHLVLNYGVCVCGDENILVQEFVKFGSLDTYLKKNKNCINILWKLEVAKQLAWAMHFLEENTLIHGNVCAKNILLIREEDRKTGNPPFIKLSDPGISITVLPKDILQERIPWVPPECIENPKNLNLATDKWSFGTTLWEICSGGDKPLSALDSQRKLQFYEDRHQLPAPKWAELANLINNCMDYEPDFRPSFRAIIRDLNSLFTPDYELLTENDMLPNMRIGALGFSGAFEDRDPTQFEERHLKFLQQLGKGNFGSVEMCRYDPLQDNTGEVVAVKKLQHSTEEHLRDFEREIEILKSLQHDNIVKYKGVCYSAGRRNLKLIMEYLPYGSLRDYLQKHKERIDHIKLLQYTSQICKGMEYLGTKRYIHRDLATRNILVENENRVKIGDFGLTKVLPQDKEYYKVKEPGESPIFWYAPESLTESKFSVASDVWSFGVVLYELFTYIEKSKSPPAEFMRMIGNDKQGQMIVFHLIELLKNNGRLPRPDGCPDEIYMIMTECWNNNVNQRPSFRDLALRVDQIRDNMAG
# T2 sequence (P29597 whole entry): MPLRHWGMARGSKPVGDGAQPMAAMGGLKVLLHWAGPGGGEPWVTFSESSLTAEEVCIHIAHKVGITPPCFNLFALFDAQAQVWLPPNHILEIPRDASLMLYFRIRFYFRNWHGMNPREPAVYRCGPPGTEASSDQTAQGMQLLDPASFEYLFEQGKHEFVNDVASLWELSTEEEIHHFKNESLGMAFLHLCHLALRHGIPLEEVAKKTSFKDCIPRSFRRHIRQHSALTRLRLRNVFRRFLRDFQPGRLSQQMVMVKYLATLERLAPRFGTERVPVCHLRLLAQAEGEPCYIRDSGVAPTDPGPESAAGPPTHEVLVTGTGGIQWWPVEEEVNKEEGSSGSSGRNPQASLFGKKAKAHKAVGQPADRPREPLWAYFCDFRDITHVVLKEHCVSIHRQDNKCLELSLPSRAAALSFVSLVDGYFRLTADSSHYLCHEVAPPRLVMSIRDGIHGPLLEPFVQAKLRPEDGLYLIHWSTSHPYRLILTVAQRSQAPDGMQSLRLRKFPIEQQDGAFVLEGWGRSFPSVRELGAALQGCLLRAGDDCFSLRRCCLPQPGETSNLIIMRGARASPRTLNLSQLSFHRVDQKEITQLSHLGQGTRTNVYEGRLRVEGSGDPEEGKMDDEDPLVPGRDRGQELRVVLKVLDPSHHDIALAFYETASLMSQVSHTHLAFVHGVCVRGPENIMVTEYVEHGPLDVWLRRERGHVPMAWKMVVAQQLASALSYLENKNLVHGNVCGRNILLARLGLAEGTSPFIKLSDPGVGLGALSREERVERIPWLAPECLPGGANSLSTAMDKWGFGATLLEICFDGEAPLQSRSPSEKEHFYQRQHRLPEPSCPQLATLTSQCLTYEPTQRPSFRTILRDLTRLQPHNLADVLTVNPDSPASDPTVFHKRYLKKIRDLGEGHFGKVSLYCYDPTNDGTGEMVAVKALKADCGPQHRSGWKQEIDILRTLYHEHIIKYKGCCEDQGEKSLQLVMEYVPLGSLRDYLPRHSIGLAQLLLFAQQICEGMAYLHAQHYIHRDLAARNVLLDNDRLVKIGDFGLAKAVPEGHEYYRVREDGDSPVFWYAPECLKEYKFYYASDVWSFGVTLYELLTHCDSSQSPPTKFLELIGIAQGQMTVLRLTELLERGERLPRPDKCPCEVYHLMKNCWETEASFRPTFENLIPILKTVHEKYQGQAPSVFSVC
# T1 sequence (P23458 whole entry): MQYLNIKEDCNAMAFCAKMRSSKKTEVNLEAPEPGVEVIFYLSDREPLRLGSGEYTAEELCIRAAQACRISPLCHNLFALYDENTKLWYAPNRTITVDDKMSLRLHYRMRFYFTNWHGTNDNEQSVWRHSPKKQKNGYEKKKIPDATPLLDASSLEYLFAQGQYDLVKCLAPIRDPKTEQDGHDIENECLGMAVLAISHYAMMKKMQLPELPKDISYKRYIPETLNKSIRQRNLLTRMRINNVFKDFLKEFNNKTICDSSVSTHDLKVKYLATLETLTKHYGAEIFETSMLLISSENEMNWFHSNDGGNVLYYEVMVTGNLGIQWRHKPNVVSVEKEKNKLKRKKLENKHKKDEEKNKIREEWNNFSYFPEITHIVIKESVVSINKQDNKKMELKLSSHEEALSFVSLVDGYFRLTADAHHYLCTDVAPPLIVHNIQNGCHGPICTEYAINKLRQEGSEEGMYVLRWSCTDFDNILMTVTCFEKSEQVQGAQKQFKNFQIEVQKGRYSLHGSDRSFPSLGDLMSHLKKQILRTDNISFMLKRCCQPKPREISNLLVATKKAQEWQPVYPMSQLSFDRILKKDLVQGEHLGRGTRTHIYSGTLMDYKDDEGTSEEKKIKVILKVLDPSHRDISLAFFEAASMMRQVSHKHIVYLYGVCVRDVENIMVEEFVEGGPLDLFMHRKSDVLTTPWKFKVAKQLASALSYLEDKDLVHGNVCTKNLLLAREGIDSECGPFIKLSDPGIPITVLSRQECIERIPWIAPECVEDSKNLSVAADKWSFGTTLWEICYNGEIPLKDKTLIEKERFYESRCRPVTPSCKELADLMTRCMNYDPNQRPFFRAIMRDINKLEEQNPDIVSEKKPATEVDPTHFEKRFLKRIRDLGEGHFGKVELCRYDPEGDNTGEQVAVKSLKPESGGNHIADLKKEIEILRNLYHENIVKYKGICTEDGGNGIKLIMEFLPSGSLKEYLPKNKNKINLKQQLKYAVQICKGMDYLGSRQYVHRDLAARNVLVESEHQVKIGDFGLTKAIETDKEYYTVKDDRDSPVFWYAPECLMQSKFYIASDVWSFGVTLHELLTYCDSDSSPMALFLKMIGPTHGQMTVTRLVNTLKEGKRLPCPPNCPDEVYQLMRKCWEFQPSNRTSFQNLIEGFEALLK
# T4 sequence (O60674 whole entry V617F): as the sequence (O60674 whole entry) above, with V617F counted along it
SMILES,"IC50 [1, 5]","IC50 [2, 6]","IC50 [3, 7]",IC50 [4],"IC50 [3, 8]","IC50 ([1]; IC50 JAK1 (10 nM) (Km ATP), JAK1 10 nM, Km ATP)","IC50 ([2]; IC50 TYK2 (10 nM) (Km ATP), TYK2 10 nM, Km ATP)"
"C[C@H](C#N)NC(=O)c1ccc(-c2nc(Nc3cnn(C4CCN(C)CC4)c3)ncc2Cl)cc1 [Example 58, (R)-4-(5-Chloro-2-((1-(1-methylpiperidin-4-yl)-1H-pyrazol-4-yl)amino)pyrimidin-4-yl)-N-(1-cyanoethyl)benzamide]",34.8 nM,272 nM,42.2 nM,,,,
"Cc1cnc(Nc2cnn(C3CCN(C(=O)NC(C)(C)C)CC3)c2)nc1-c1ccc(C(=O)NCC#N)cc1 [Example 3, N-(tert-Butyl)-4-(4-((4-(4-((cyanomethyl)carbamoyl)phenyl)-5-methylpyrimidin-2-yl)amino)-1H-pyrazol-1-yl)piperidine-1-carboxamide]",17.1 nM,,< 0.25 nM,5.26 nM,< 0.25 nM,,
"C[C@@H](C#N)NC(=O)c1ccc(-c2nc(Nc3cnn(C4CC4)c3)ncc2Cl)cc1F [Example 137, (S)-4-(5-Chloro-2-((1-cyclopropyl-1H-pyrazol-4-yl)amino)pyrimidin-4-yl)-N-(1-cyanoethyl)-2-fluorobenzamide]",37 nM,,46.4 nM,92.3 nM,2.1 nM,,
"Cc1cnc(Nc2cnn([C@H]3CC[C@H](C#N)CC3)c2)nc1-c1ccc(C(=O)NCC(F)(F)F)cc1 [Example 87, 4-(2-((1-(Trans-4-cyanocyclohexyl)-1H-pyrazol-4-yl)amino)-5-methylpyrimidin4-yl)-N-(2,2,2-trifluoroethyl)benzamide]",9 nM,,< 0.25 nM,0.65 nM,,,
"Cc1cnc(Nc2cnn(C3CCN(S(C)(=O)=O)CC3)c2)nc1-c1ccc(C(=O)NCC2(C#N)CC2)cc1 [Example 159, N-((1-cyanocyclopropyl)methyl)-4-(5-methyl-2-((1-(1-(methylsulfonyl)piperidin-4-yl)-1H-pyrazol-4-yl)amino)pyrimidin-4-yl)benzamide]",24.1 nM,,4.82 nM,36.7 nM,,,
"Cc1cnc(Nc2cnn(C3CCOCC3)c2)nc1-c1ccc(C(=O)N2CC(C#N)C2)cc1 [Example 31, 1-(4-(5-Methyl-2-((1-(tetrahydro-2H-pyran-4-yl)-1H-pyrazol-4-yl)amino)pyrimidin-4-yl)benzoyl)azetidine-3-carbonitrile]",235 nM,,71.7 nM,131 nM,2.07 nM,,
"Cc1cnc(Nc2cnn(C3CCN(C(=O)C4(C(F)(F)F)CC4)CC3)c2)nc1-c1ccc(C(=O)NCC#N)cc1 [Example 115, N-(Cyanomethyl)-4-(5-methyl-2-((1-(1-(1-(trifluoromethyl)cyclopropanecarbonyl)piperidin-4-yl)-1H-pyrazol-4-yl)amino)pyrimidin-4-yl)benzamide]",20.8 nM,,< 0.25 nM,2.06 nM,< 0.25 nM,,
"Cc1cnc(Nc2cnn(C3CCN(C(=O)C4CC4(F)F)CC3)c2)nc1-c1ccc(C(=O)NCC#N)cc1 (stereo not drawn) [Example 145, N-(cyanomethyl)-4-(2-((1-(1-(2,2-difluorocyclopropanecarbonyl)piperidin-4-yl)-1H-pyrazol-4-yl)amino)-5-methylpyrimidin-4-yl)benzamide]",15.1 nM,,0.47 nM,6.97 nM,,,
"Cn1cc(Nc2ncc(Cl)c(-c3ccc(C(=O)NCC(C)(C)C#N)cc3)n2)cn1 [Example 122, 4-(5-Chloro-2-((1-methyl-1H-pyrazol-4-yl)amino)pyrimidin-4-yl)-N-(2-cyano-2-methylpropyl)benzamide]",19.3 nM,,,73.9 nM,1.1 nM,,
"Cc1cnc(Nc2cnn(C3CC3)c2)nc1-c1ccc(C(=O)N[C@@H](C)C#N)nc1 [Example 164, (S)—N-(1-cyanoethyl)-5-(2-((1-cyclopropyl-1H-pyrazol-4-yl)amino)-5-methylpyrimidin-4-yl)picolinamide]",36.6 nM,,89.3 nM,142 nM,,,
"Cc1cnc(Nc2cnn(C3CCN(CC(F)(F)F)CC3)c2)nc1-c1ccc(C(=O)NCC#N)cc1 [Example 22, N-(Cyanomethyl)-4-(5-methyl-2-((1-(1-(2,2,2-trifluoroethyl)piperidin-4-yl)-1H-pyrazol-4-yl)amino)pyrimidin-4-yl)benzamide]",,,1.59 nM,46.1 nM,0.43 nM,2.37 nM,
"Cc1cnc(Nc2cnn(C3CC3)c2)nc1-c1ccc(C(=O)N[C@@H](C)C#N)c(F)c1 [Example 129, (S)—N-(1-Cyanoethyl)-4-(2-((1-cyclopropyl-1H-pyrazol-4-yl)amino)-5-methylpyrimidin-4-yl)-2-fluorobenzamide]",39.9 nM,,49 nM,118 nM,1.6 nM,,
"N#CC1CN(C(=O)c2ccc(-c3nc(Nc4cnn(C5CC5)c4)ncc3C(F)F)cc2F)C1 [Example 126, 1-(4-(2-((1-Cyclopropyl-1H-pyrazol-4-yl)amino)-5-(difluoromethyl)pyrimidin-4-yl)-2-fluorobenzoyl)azetidine-3-carbonitrile]",,,,,,,1770 nM

# The remaining lines, values ahead:
"IC50 [1, 5]","IC50 [2, 6]","IC50 [3, 7]",IC50 [4],"IC50 [3, 8]","IC50 ([1]; IC50 JAK1 (10 nM) (Km ATP), JAK1 10 nM, Km ATP)","IC50 ([2]; IC50 TYK2 (10 nM) (Km ATP), TYK2 10 nM, Km ATP)",SMILES
1.63 nM,53.9 nM,41.3 nM,,,,,"Cc1cnc(Nc2cnn(CCO)c2)nc1-c1ccc(C(=O)N[C@H](C#N)C(C)C)cc1 [Example 191, (S)—N-(1-cyano-2-methylpropyl)-4-(2-((1-(2-hydroxyethyl)-1H-pyrazol-4-yl)amino)-5-methylpyrimidin-4-yl)benzamide]"
,30.2 nM,30.8 nM,,,,,"Cc1cnc(Nc2cn[nH]c2)nc1-c1ccc(C(=O)N[C@@H](C)C#N)cc1 [Example 199, (S)-4-(2-((1H-Pyrazol-4-yl)amino)-5-methylpyrimidin-4-yl)-N-(1-cyanoethyl)benzamide]"
59.6 nM,251 nM,256 nM,,,,,"N#CCNC(=O)c1ccc(-c2nc(Nc3cnn(CC#N)c3)ncc2F)cc1 [Example 45, N-(cyanomethyl)-4-(2-((1-(cyanomethyl)-1H-pyrazol-4-yl)amino)-5-fluoropyrimidin-4-yl)benzamide]"
3.68 nM,,1.68 nM,14.1 nM,,,,"CCn1cc(Nc2ncc(Cl)c(-c3ccc(C(=O)N[C@@H](C)C#N)cc3)n2)cn1 [Example 229, (S)-4-(5-Chloro-2-((1-ethyl-1H-pyrazol-4-yl)amino)pyrimidin-4-yl)-N-(1-cyanoethyl)benzamide]"
5.89 nM,,0.39 nM,22 nM,,,,"CC(C)n1cc(Nc2ncc(Cl)c(-c3ccc(C(=O)N[C@@H](C)C#N)cc3)n2)cn1 [Example 228, (S)-4-(5-Chloro-2-((1-isopropyl-1H-pyrazol-4-yl)amino)pyrimidin-4-yl)-N-(1-cyanoethyl)benzamide]"
13.1 nM,,0.47 nM,34.3 nM,,,,"CO[C@H]1CC[C@@H](n2cc(Nc3ncc(C)c(-c4ccc(C(=O)N[C@@H](C)C#N)cc4)n3)cn2)CC1 [Example 90, N—((S)-1-cyanoethyl)-4-(2-((1-(cis-4-methoxycyclohexyl)-1H-pyrazol-4-yl)amino)-5-methylpyrimidin-4-yl)benzamide]"
124 nM,,,796 nM,13.6 nM,,,"Cc1cnc(Nc2cnn(C)c2)nc1-c1ccc(C(=O)N[C@H]2C[C@@H](C#N)C2)cc1 [Example 16, N-((cis)-3-Cyanocyclobutyl)-4-(5-methyl-2-((1-methyl-1H-pyrazol-4-yl)amino)pyrimidin-4-yl)benzamide]"
19.1 nM,,15 nM,92.3 nM,,,,"Cc1cnc(Nc2cnn(CC#N)c2)nc1-c1ccc(C(=O)N[C@@H](C)C#N)cc1 [Example 40, (S)—N-(1-cyanoethyl)-4-(2-((1-(cyanomethyl)-1H-pyrazol-4-yl)amino)-5-methylpyrimidin-4-yl)benzamide]"
